Counter-ions that a name gives are not always drawn.
Columns and labels:
[1] = Powder characteristics of raw materials (particle size and geometry); type: physicochemical; details: raw material powder; for D90: 90% of particles smaller than this diameter
[2] = literature values; cited from earlier work

CN(C)C(=N)N=C(N)N [Metformin · HCl, metformin hydrochloride]
D10 [1]: 8.4 μm | D50 [1]: 51.6 μm | Sphericity [1]: 0.87 | D90 [1]: 150.2 μm

CC(=O)Nc1ccc(O)cc1 [Acetaminophen, acetaminophen]
D10 [1]: 1.7 μm | D50 [1]: 6.4 μm | Sphericity [1]: 0.84 | D90 [1]: 20.1 μm

COc1cccc(C2(O)CCCCC2CN(C)C)c1 (stereo not drawn) [tramadol]
aqueous solubility [2]: 30 to 100 mg/mL

— US11786476B2, “Oral dosage form” (Universiteit Gent, priority 2016, dated 2023)
